Laboratory results: patent publication US10189813B2, “Formylated N-heterocyclic derivatives as FGFR4 inhibitors” (NOVARTIS AG, priority 2015, dated 2019)

Key:
[1] = biological target: BaF3-Tel-FGFR4 cells (TEL fused to cytoplasmic domain of FGFR4) (Homo sapiens, UniProt P22455); assay: In vitro cellular kinase assay for FGFR4 (BaF3-Tel-FGFR4, MSD capture ELISA of tyrosine phosphorylation); settings: 1 hour incubation
[2] = biological target: T1, FGFR4 (GST-FGFR4(388-802)) (Homo sapiens, UniProt P22455); assay: In-vitro biochemical kinase assay for FGFR4 (Caliper mobility shift); settings: 60 minutes at 30° C.
T1 construct: GST-FGFR4(388-802); GST (N); made in house; host or cells: insect cells
Protocol: In-Vitro Biochemical Kinase Assays for FGFR4
All assays were performed in 384 well microtiter plates. Each assay plate contained 8-point serial dilutions for 40 test compounds, as well as four 8-point serial dilutions of staurosporine as reference compound, plus 16 high and 16 low controls.
(§1) Liquid handling and incubation steps were done on an Innovadyne Nanodrop Express equipped with a robotic arm (Thermo CatX, Caliper Twister II) and an incubator (Liconic STX40, Thermo Cytomat 2C450). The assay plates were prepared by addition of 50 nI per well of compound solution in 90% DMSO. […] Kinase reactions were incubated at 30° C. for 60 minutes and subsequently terminated by addition of 16 μl per well of stop solution (100 mM HEPES pH 7.5, 5% DMSO, 0.1% Caliper coating reagent, 10 mM EDTA, and 0.015% Brij35). Plates with terminated kinase reactions were transferred to the Caliper LC3000 workstations for reading. Phosphorylated and unphosphorylated peptides were separated using the Caliper microfluidic mobility shift technology. Briefly, samples from terminated kinase reactions were applied to the chip. Analytes are transported through the chip by constant buffer flow and the migration of the substrate peptide is monitored by the fluorescence signal of its label. Phosphorylated peptide (product) and unphosphorylated peptide (substrate) are separated in an electric field by their charge/mass ratio. Kinase activities were calculated from the amounts of formed phospho-peptide. IC50 values were determined from percent inhibition values at different compound concentrations by non-linear regression analysis.
Preparation of Compound Dilutions
Test compounds were dissolved in DMSO (10 mM) and transferred into 1.4 mL flat bottom or V-shaped Matrix tubes carrying a unique 2D matrix. The stock solutions were stored at […] if not used immediately. For the test procedure the vials were defrosted and identified by a scanner whereby a working sheet was generated that guided the subsequent working steps.
Compound dilutions were made in 96 well plates. This format enabled the assay of maximally 40 individual test compounds at 8 concentrations (single points) including 4 reference compounds. The dilution protocol included the production of “pre-dilution plates”, “master plates” and “assay plates”.
96 polypropylene well plates were used as pre-dilution plates. A total of 4 pre-dilution plates were prepared including 10 test compounds each on the plate positions A1-A10, one standard compound at A11 and one DMSO control at A12. All dilution steps were done on a HamiltonSTAR robot.
These plates were used directly for the assay which was performed in a total volume of 9.05 μL.

FGFR1 (407-822) = biological target: T2, FGFR1 (407-822) (Homo sapiens, UniProt P11362); assay: In vitro biochemical assay for FGFR1
T2 construct: FGFR1 (407-822)
Protocol: as §1
(§2) In vitro biochemical assays for FGFR1 (407-822), FGFR2 (406-821) and FGFR3 (411-806) were conducted in a similar manner to the in vitro biochemical assay for FGFR4 described above, using the indicated portions of the kinase domains. The following examples all produced IC50 values >10000 nM in the biochemical FGFR1, FGFR2 and FGFR3 assays: 2, 3, 4, 11, 13, 16, 17, 18, 20, 28, 30.

FGFR2 (406-821) = biological target: T3, FGFR2 (406-821) (Homo sapiens, UniProt P21802); assay: In vitro biochemical assay for FGFR2
T3 construct: FGFR2 (406-821)
Protocol: as §1, §2

[3] = system: HuH-7 hepatocellular carcinoma cells; assay: CellTiter Glo (CTG) proliferation/viability assay; assay type: cell-based; settings: HuH-7 cells, 3 days, half-maximal growth inhibition (GI50), read-out: HUH7 proliferation CTG
Protocol: CellTiter Glo (CTG) Assay:
The functional effect of compounds on cell proliferation is assessed using HuH-7 hepatocellular carcinoma cells obtained from the Japanese Collection of Research Bioresources Cell Bank (Cat# JCRB0403) and cultured in the vendor-recommended medium (DMEM high glucose (Amimed Cat#1-26F01-I), 10% foetal calf serum (Invitrogen Cat#16140-071), 1 mM sodium pyruvate (Amimed Cat#5-60F00-H), 1× Penicillin/Streptomycin (Amimed Cat#4-01F00-H)) at 37° C. in a humidified 5% CO2 incubator. Compound-mediated suppression of cell proliferation/viability is assessed by quantification of cellular ATP levels using the CellTiter-Glo (CTG) reagent (Promega, Cat# G7573). Briefly, cells are seeded at 3′000 cells/well/80 μl fresh medium into tissue-culture-treated 96-well plates (Costar Cat#3904), followed by addition of 20 μl medium containing compound dilutions at 5-fold their final intended concentration. Dose-response effects are assessed by 3-fold serial dilutions of the test compound, starting at 10 μM. Following incubation of the cells for 3 days at 37° C. and 5% CO2, the effect of inhibitors on cell viability is quantified following addition of 50 μl CTG and luminescence measurement (integration time: 500 ms) as per vendor manual, using a correspondingly equipped multi-mode plate reader (M200Pro, TECAN, Switzerland). For data analysis, the assay background value determined in wells containing medium, but no cells, is subtracted from all data points. To enable differentiation of cytotoxic from cytostatic compounds, the number of viable cells is assessed relative to that observed at the time of compound addition using a separate cell plate (day 0). The effect of a particular test compound concentration on cell proliferation/viability is expressed as percentage of the background- and day 0-corrected luminescence reading obtained for cells treated with vehicle only (DMSO, 0.1% f.c.), which is set as 100%, whereas the luminescence reading for wells containing medium only, but no cells, is set as −100%. Compound concentrations leading to half-maximal growth inhibition (GI50) are determined using standard four parameter curve fitting (XLfit 5.2., IDBS, UK).

FGFR3 (411-806) = biological target: T4, FGFR3 (411-806) (Homo sapiens, UniProt P22607); assay: In vitro biochemical assay for FGFR3
T4 construct: FGFR3 (411-806)
Protocol: as §1, §2

[4] = system: HuH-7 hepatocellular carcinoma cells; assay: Methylene blue staining proliferation assay (MBS); assay type: cell-based; settings: Homo sapiens, HuH-7 cells, 72 hours, read-out: HUH7 proliferation MBS
Protocol: Methylene Blue Staining Proliferation Assay (MBS):
The effect of compounds on cell proliferation is assessed using HuH-7 hepatocellular carcinoma cells obtained from the Japanese Collection of Research Bioresources Cell Bank (Cat# JCRB0403) and cultured in the vendor-recommended medium (DMEM high glucose (Amimed Cat#1-26F01-I), 10% foetal calf serum (Invitrogen Cat#16140-071), 1 mM sodium pyruvate (Amimed Cat#5-60F00-H), 1× Penicillin/Streptomycin (Amimed Cat#4-01F00-H)) at 37° C. in a humidified 5% CO2 incubator. […] 72 hours after compound addition, cells were fixed by adding 25 μL/well of 20% glutaraldehyde (Sigma Aldrich Cat# G400-4) and incubated for 10 minutes at room temperature. Cells were washed three times with H2O, 200 μL/well and stained with 100 μL/well 0.05% methylene blue (ABCR GmbH Cat# AB117904) for 10 minutes at room temperature. Cells were washed 3 times with H2O, 200 μL/well and then lysed by adding 200 μL/well of 3% HCl (Fluka Cat#84422) for 30 minutes at room temperature with shaking. Optical density was measured at A650 nm. The concentration of compound providing 50% of proliferation inhibition with respect to DMSO-treated cells was determined (IC50) using XLFit software.

T4 sequence (P22607 411-806): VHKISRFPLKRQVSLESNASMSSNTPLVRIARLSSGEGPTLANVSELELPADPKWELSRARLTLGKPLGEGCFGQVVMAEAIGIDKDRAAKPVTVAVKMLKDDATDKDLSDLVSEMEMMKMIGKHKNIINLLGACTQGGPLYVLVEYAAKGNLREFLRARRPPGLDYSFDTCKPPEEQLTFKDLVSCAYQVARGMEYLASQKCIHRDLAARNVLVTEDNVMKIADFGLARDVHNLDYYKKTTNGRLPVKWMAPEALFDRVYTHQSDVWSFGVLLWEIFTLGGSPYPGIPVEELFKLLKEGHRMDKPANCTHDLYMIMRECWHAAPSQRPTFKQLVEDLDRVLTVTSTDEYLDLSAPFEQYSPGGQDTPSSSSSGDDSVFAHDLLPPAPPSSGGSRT
T2 sequence (P11362 407-822): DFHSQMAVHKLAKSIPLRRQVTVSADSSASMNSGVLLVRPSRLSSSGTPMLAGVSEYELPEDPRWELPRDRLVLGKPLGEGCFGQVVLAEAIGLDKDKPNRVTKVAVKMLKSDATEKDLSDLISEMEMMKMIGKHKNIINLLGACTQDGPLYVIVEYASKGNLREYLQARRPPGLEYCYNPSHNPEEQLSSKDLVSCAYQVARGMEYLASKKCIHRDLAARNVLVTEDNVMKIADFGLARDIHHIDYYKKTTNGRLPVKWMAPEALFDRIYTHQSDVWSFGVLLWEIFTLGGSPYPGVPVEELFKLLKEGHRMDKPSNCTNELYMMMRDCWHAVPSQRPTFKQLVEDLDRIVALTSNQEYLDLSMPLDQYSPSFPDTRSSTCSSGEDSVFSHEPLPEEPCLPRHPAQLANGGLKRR
BaF3-Tel-FGFR4 cells (TEL fused to cytoplasmic domain of FGFR4), sequence (P22455 with tags, fused parts or gaps): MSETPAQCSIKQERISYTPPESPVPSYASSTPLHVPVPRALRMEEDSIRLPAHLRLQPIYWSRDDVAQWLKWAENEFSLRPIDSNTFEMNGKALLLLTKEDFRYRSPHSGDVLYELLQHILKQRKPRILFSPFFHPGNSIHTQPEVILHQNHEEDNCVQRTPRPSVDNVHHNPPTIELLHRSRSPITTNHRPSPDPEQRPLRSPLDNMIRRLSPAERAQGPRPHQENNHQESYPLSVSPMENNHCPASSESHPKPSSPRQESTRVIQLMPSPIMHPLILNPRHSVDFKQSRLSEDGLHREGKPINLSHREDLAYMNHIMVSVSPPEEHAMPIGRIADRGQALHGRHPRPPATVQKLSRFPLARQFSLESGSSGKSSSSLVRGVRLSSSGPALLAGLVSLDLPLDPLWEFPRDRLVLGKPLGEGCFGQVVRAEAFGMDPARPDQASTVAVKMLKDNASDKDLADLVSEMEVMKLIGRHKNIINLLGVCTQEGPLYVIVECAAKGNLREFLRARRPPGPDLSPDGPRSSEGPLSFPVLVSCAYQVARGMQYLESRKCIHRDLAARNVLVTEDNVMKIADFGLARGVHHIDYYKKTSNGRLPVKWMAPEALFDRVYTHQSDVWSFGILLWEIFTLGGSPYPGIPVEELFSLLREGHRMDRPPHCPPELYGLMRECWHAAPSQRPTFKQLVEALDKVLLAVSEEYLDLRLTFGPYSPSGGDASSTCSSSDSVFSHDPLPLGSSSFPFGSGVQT
T3 sequence (P21802 406-821): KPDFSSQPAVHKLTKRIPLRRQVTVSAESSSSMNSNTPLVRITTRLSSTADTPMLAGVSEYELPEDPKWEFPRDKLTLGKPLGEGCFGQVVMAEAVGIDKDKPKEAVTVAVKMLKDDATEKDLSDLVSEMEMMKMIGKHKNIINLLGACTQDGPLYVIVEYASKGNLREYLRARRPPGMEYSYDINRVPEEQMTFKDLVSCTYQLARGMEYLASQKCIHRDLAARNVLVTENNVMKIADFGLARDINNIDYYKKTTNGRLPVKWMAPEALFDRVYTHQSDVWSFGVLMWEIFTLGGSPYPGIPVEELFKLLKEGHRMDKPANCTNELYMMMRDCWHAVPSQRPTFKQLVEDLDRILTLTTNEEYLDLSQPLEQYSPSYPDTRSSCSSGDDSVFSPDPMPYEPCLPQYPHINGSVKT
T1 sequence (P22455 388-802): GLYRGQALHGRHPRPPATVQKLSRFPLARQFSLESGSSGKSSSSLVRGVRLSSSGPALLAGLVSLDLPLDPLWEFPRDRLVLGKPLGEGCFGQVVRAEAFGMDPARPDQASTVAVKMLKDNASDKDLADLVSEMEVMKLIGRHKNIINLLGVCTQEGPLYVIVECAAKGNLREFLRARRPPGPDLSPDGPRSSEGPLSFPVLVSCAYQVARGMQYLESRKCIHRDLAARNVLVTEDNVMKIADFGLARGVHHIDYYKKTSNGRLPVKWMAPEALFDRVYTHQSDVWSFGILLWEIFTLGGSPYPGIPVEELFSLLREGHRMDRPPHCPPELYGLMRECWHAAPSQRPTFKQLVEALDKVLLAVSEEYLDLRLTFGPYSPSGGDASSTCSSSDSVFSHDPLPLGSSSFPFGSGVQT

SMILES | IC50 [1] [nM] | IC50 [2] [nM] | IC50 (FGFR1 (407-822)) [nM] | IC50 (FGFR2 (406-821)) [nM] | IC50 ([3]; Homo sapiens, Huh-7, 72 h) [nM] | IC50 [3] [nM] | IC50 (FGFR3 (411-806)) [nM] | IC50 [4] [nM]
COCCNc1cc(NC(=O)N(C)c2ccc(C(=O)O)c(C=O)n2)ncc1C#N [Example 9, 6-(3-(5-cyano-4-((2-methoxyethyl)amino)pyridin-2-yl)-1-methylureido)-2-formylnicotinic acid] | 1270 | 1.3 | – | – | > 3000 | – | – | > 3000
COCCNc1cc(NC(=O)N(C)c2ccc(-c3cnn(C)c3)c(C=O)n2)ncc1C#N [Example 13, 3-(5-cyano-4-((2-methoxyethyl)amino)pyridin-2-yl)-1-methyl-1-(6-formyl-5-(1-methyl-1H-pyrazol-4-yl)pyridin-2-yl)urea] | 53 | 5.8 | > 10000 | > 10000 | 664 | – | > 10000 | –
COCCNc1cc(NC(=O)N(C)c2ccc(CN(C)C(C)=O)c(C=O)n2)ncc1C#N [Example 15, N-((6-(3-(5-cyano-4-((2-methoxyethyl)amino)pyridin-2-yl)-1-methylureido)-2-formylpyridin-3-yl)methyl)-N-methylacetamide] | 4.8 | – | – | – | 106 | – | – | 25
CCN(C(=O)Nc1cc(NCCOC)c(C#N)cn1)c1ccc(-c2cnn(C)c2)c(C=O)n1 [Example 10, 3-(5-cyano-4-((2-methoxyethyl)amino)pyridin-2-yl)-1-ethyl-1-(6-formyl-5-(1-methyl-1H-pyrazol-4-yl)pyridin-2-yl)urea] | 13 | 10 | – | – | – | – | – | 1090

Further lines, results first:

IC50 [1] [nM] | IC50 [2] [nM] | IC50 (FGFR1 (407-822)) [nM] | IC50 (FGFR2 (406-821)) [nM] | IC50 ([3]; Homo sapiens, Huh-7, 72 h) [nM] | IC50 [3] [nM] | IC50 (FGFR3 (411-806)) [nM] | IC50 [4] [nM] | SMILES
2640 | 480 | > 10000 | > 10000 | > 3000 | 2660 | > 10000 | – | COCCNc1cc(Nc2ccnn2-c2ccc(-c3cnn(C)c3)c(C=O)n2)ncc1C(F)(F)F [Example 28, 6-(5-((4-((2-methoxyethyl)amino)-5-(trifluoromethyl)pyridin-2-yl)amino)-1H-pyrazol-1-yl)-3-(1-methyl-1H-pyrazol-4-yl)picolinaldehyde]
25 | 1.9 | > 10000 | > 10000 | 463 | – | > 10000 | 191 | CC(C)Oc1cc(NC(=O)N(C)c2ccc(C(F)F)c(C=O)n2)ncc1C#N [Example 18, 3-(5-cyano-4-isopropoxypyridin-2-yl)-1-(5-(difluoromethyl)-6-formylpyridin-2-yl)-1-methylurea]
982 | 100 | > 10000 | > 10000 | > 3000 | – | > 10000 | – | CC(C)Oc1cc(NC(=O)Nc2nccc(C=O)n2)ncc1C#N [Example 30, 1-(5-cyano-4-isopropoxypyridin-2-yl)-3-(4-formylpyrimidin-2-yl)urea]
5.3 | 4.3 | > 10000 | > 10000 | 100 | – | > 10000 | – | COCCNc1cc(NC(=O)N(C)c2ccc(CN3CCCC3=O)c(C=O)n2)ncc1C#N [Example 20, 3-(5-cyano-4-((2-methoxyethyl)amino)pyridin-2-yl)-1-(6-formyl-5-((2-oxopyrrolidin-1-yl)methyl)pyridin-2-yl)-1-methylurea]
7.7 | 2.7 | > 10000 | > 10000 | 90 | – | > 10000 | 51 | COCCNc1cc(NC(=O)N(C)c2ccc(C(F)F)c(C=O)n2)ncc1C#N [Example 16, 3-(5-cyano-4-((2-methoxyethyl)amino)pyridin-2-yl)-1-(5-(difluoromethyl)-6-formylpyridin-2-yl)-1-methylurea]
145 | 29 | > 10000 | > 10000 | 2760 | – | > 10000 | – | CC(C)Oc1cc(NC(=O)N(C)c2ccc(CN3CCN(C)CC3)c(C=O)n2)ncc1C#N [Example 17, 3-(5-cyano-4-isopropoxypyridin-2-yl)-1-(6-formyl-5-((4-methylpiperazin-1-yl)methyl)pyridin-2-yl)-1-methylurea]
